Source: ChEMBL document CHEMBL1201862, “PubChem BioAssay data set” (2004)
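Compound exposure: 48 hours, 5 concentrations, 96-well plates. Abbreviation: GI50, concentration required for 50% inhibition of growth.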 Activity calls are given as the source filed them. Rule as the data show it: active = GI50 up to about 1.1 µM and inactive = higher.

Experiments:
Assay in all cases: DTP human tumour cell line panel, 48 h
DMS-114 = system: DMS-114
M19-MEL = system: M19-MEL
SNB-78 = system: SNB-78
KM-20L2 = system: KM-20L2
LXFL 529 = system: LXFL 529
RXF 631 = system: RXF 631
XF498 = system: XF498
HOP-18 = system: HOP-18
DMS-273 = system: DMS-273

Measured: GI50

CCOC(=O)/C(=C/c1ccc(C(=O)OC)cc1)N(CC)CC
inactive: DMS-114 32.3 µM | M19-MEL 51.1 µM | SNB-78 24.4 µM | KM-20L2 31.2 µM | LXFL 529 50.6 µM

CC1(C)C(=NNC(=S)NN)C(C)(C)C1=NNC(=S)NN
inactive: DMS-114 > 100 µM | RXF 631 > 100 µM | M19-MEL > 100 µM | KM-20L2 > 100 µM | XF498 > 100 µM

CC/C(=N/O)c1ccc2[nH]c3c(C)cc([N+](=O)[O-])c(C)c3c2c1
inactive: DMS-114 > 100 µM | M19-MEL 50.2 µM | HOP-18 > 100 µM | SNB-78 > 100 µM | XF498 50.2 µM | DMS-273 19.4 µM

c1ccc2c(OCCSCCCCCCCCCCSCCOc3cccc4ccccc34)cccc2c1
inactive: DMS-114 > 100 µM | M19-MEL > 100 µM | HOP-18 > 100 µM | SNB-78 > 100 µM | KM-20L2 > 100 µM | DMS-273 > 100 µM

Nc1nc2sc3ccccc3c(=O)n2n1
inactive: DMS-114 > 100 µM | HOP-18 > 100 µM | SNB-78 > 100 µM | KM-20L2 > 100 µM | LXFL 529 > 100 µM | XF498 > 100 µM | DMS-273 > 100 µM

CS(=O)(=O)NNS(=O)(=O)c1ccccc1
inactive: DMS-114 > 100 µM | M19-MEL > 100 µM | KM-20L2 > 100 µM | LXFL 529 > 100 µM | XF498 > 100 µM | DMS-273 > 100 µM

CCCCNS(=O)(=O)c1ccc(-c2ccc3c(c2)-c2ccc(S(=O)(=O)NCCCC)cc2S3(=O)=O)cc1
inactive: DMS-114 7.52 µM | M19-MEL 21.5 µM | HOP-18 20.7 µM | SNB-78 12.4 µM | KM-20L2 4.15 µM | LXFL 529 13.2 µM | XF498 10.3 µM | DMS-273 20 µM

O=C(NOC(=O)c1ccc([N+](=O)[O-])cc1)c1ccc(Cl)cc1
inactive: DMS-114 44.5 µM | RXF 631 > 100 µM | M19-MEL > 100 µM | HOP-18 2.9 µM | SNB-78 16.6 µM | KM-20L2 97.1 µM | LXFL 529 17.9 µM | XF498 85.9 µM

Clc1ccc(-c2c(C3=NCCN3)nnn2-c2ccc(Cl)cc2)cc1
inactive: DMS-114 16.4 µM | M19-MEL 16.6 µM | HOP-18 > 100 µM | SNB-78 18.8 µM | KM-20L2 15.7 µM | LXFL 529 29.4 µM | XF498 15 µM | DMS-273 42.2 µM

CCN(CC)C(=O)c1cccc2c(OC)ccc(OC)c12
inactive: DMS-114 > 100 µM | M19-MEL > 100 µM | HOP-18 > 100 µM | KM-20L2 > 100 µM | LXFL 529 > 100 µM | DMS-273 > 100 µM

Cc1c2nc3ccccc3sc-2cc(=O)c1C
inactive: DMS-114 10.2 µM | M19-MEL 15.8 µM | HOP-18 > 100 µM | SNB-78 > 24.3 µM | KM-20L2 > 72.6 µM | LXFL 529 41 µM | XF498 28.4 µM | DMS-273 50.6 µM

CN[C@@H](C)[C@@H](N)c1ccccc1
inactive: RXF 631 > 100 µM | HOP-18 > 100 µM | SNB-78 > 100 µM | LXFL 529 > 100 µM | DMS-273 > 100 µM

CCN(CC)CCOc1ccc(C(O)(Cc2ccc(OC)cc2)c2ccccc2)cc1 (stereo unspecified)
inactive: DMS-114 14.9 µM | M19-MEL 15.4 µM | SNB-78 24.5 µM | KM-20L2 3.24 µM | LXFL 529 17 µM | XF498 14 µM | DMS-273 14.3 µM

CCOC(=O)NC1C2CC(=O)OC(O2)C1OC(C)=O (stereo unspecified)
inactive: RXF 631 > 100 µM | M19-MEL > 100 µM | HOP-18 > 100 µM | SNB-78 > 100 µM | KM-20L2 > 100 µM | LXFL 529 > 100 µM | DMS-273 > 100 µM

C/C(=C\Cc1cc(O)ccc1O)CCc1c(C)c(O)c(O)c(C=O)c1C [PANICEIN C]
inactive: DMS-114 18 µM | M19-MEL 17.7 µM | HOP-18 18.7 µM | KM-20L2 37.5 µM | LXFL 529 9.64 µM | XF498 20 µM | DMS-273 27.5 µM

[N-]=[N+]=NCC(O)Cn1cnc2c(NC(=O)c3ccccc3)ncnc21 (stereo unspecified)
inactive: DMS-114 67.1 µM | M19-MEL > 100 µM | HOP-18 > 100 µM | SNB-78 > 100 µM | KM-20L2 > 100 µM | LXFL 529 > 100 µM | XF498 > 100 µM | DMS-273 64.4 µM

Nc1ncnc2c1ncn2C1OC(CSC(F)(F)F)C(O)C1O (stereo unspecified)
inactive: DMS-114 > 100 µM | M19-MEL > 100 µM | HOP-18 > 100 µM | SNB-78 > 100 µM | KM-20L2 > 100 µM | LXFL 529 > 100 µM | DMS-273 > 100 µM

Nc1ccc2nc(NCc3ccc(F)cc3)cnc2c1
inactive: DMS-114 75.5 µM | SNB-78 75.7 µM | KM-20L2 > 100 µM | LXFL 529 > 100 µM | XF498 > 100 µM | DMS-273 > 100 µM

CCOC(=O)COc1cccc2c1C(=O)CCO2
inactive: DMS-114 > 100 µM | RXF 631 > 100 µM | M19-MEL > 100 µM | SNB-78 > 100 µM | KM-20L2 > 100 µM | LXFL 529 > 100 µM | XF498 > 100 µM | DMS-273 > 100 µM

O=C(O)/C=C/c1ccc(O)c(O)c1 [CAFFEIC ACID]
inactive: DMS-114 > 100 µM | RXF 631 > 100 µM | M19-MEL > 100 µM | HOP-18 > 100 µM | SNB-78 > 100 µM | KM-20L2 > 100 µM | LXFL 529 > 100 µM | DMS-273 > 100 µM
